Test results as given in patent publication US20070027150A1 (priority 2005, published 2007).

Each compound was assayed against His-tagged N-terminal ATP binding domain (amino acid residues 9-236) of HSP90α (Homo sapiens, UniProt P07900) (assay: HSP90 inhibitor binding potency: TRF competition binding assay). Conditions: Table I; read-out: Hsp90 IC50 Range.
Description: HSP90 Inhibitor Binding Potency: TRF Binding Assay
In this example, the binding potency of HSP90 inhibitors as measured by a TRF binding assay is described.
TRF competition binding assays were performed to determine the binding potency (IC50 values) of HSP90 inhibitors. Purified His-tagged N-terminal ATP binding domain (amino acid residues 9-236) of HSP90α (HSP90α GeneID: 3320; mRNA Sequence NM_005348) was incubated for two hours at room temperature in binding buffer (50 mM HEPES, 6 mM MgCl2, 20 mM KCl and 0.1% BSA) with biotinylated radicicol and progressively higher concentrations of the competing compounds. A fraction of the mixture was transferred to capture plates (coated with streptavidin) and incubated for one hour at room temperature. After washing with DELFIA wash buffer, europium-labeled anti-his antibody was added and incubated for two hours at room temperature, followed by washing with DELFIA buffer. DELFIA enhancement solution was then added. After gentle shaking for 10 minutes, the plates were read in VICTOR for europium counts.
`COc1cccc(Oc2ccccc2)c1C1CC(=O)c2c(C)nc(N)nc2C1` (centres unmarked) [Compound 22, 2-amino-7-(2-methoxy-6-phenoxyphenyl)-4-methyl-7,8-dihydroquinazolin-5(6H)-one] showed an IC50 of 1000 to 10000 nM. Compound `Cc1nc(N)nc2c1C(=O)CC(c1cccc(-c3ccccn3)c1)C2` (centres unmarked) [Compound 28, 2-amino-4-methyl-7-(3-pyridin-2-ylphenyl)-7,8-dihydroquinazolin-5(6H)-one] has an IC50 of over 10000 nM. In the case of `Cc1nc(N)nc2c1C(=O)CC(c1c(-c3cccnc3F)cnn1C)C2` (centres unmarked) [Compound 64, 2-amino-7-[4-(2-fluoro-pyridin-3-yl)-2-methyl-2H-pyrazol-3-yl]-4-methyl-7,8-dihydro-6H-quinazolin-5-one], the IC50 is reported as 1000 to 10000 nM. `Cc1nc(N)nc2c1C(=O)CC(c1nn(C)cc1-c1cccnc1F)C2` (centres unmarked) [Compound 63, 2-amino-7-[4-(2-fluoro-pyridin-3-yl)-1-methyl-1H-pyrazol-3-yl]-4-methyl-7,8-dihydro-6H-quinazolin-5-one] showed an IC50 of under 1000 nM. `Cc1nc(N)nc2c1C(=O)CC(c1ccccc1OCCN1CCN(C)CC1)C2` (centres unmarked) [Compound 152, 2-amino-4-methyl-7-{2-[2-(4-methyl-piperazin-1-yl)-ethoxy]-phenyl}-7,8-dihydro-6H-quinazolin-5-one] showed an IC50 of 1000 to 10000 nM. `COc1cccc(-c2ccccc2CO)c1C1CC(=O)c2c(C)nc(N)nc2C1` (centres unmarked) [Compound 105, 2-amino-7-[2′-(hydroxymethyl)-3-methoxy-1,1′-biphenyl-2-yl]-4-methyl-7,8-dihydroquinazolin-5(6H)-one] gave an IC50 of under 1000 nM. In the case of `Cc1nc(N)nc2c1C(=O)CC(c1ccccc1-c1cccc3c1NC(=O)C3)C2` (centres unmarked) [Compound 131, 2-amino-4-methyl-7-[2-(2-oxo-2,3-dihydro-1H-indol-7-yl)phenyl]-7,8-dihydroquinazolin-5(6H)-one], the IC50 is reported as 1000 to 10000 nM. `Cc1nc(N)nc2c1C(=O)CC(c1c(OCCN3CCNCC3)cccc1-c1cccnc1F)C2` (centres unmarked) [Compound 156, 2-amino-7-[2-(2-fluoro-pyridin-3-yl)-6-(2-piperazin-1-yl-ethoxy)-phenyl]-4-methyl-7,8-dihydro-6H-quinazolin-5-one] gave an IC50 of under 1000 nM. In the case of `Cc1nc(N)nc2c1C(=O)CC(c1ccccc1-c1nccs1)C2` (centres unmarked) [Compound 35, 2-amino-4-methyl-7-[2-(1,3-thiazol-2-yl)phenyl]-7,8-dihydroquinazolin-5(6H)-one], the IC50 is reported as under 1000 nM. For `Cc1nc(N)nc2c1C(=O)CC(c1cccnc1-c1ccccn1)C2` (centres unmarked) [Compound 33, 2-amino-7-(2,2′-bipyridin-3-yl)-4-methyl-7,8-dihydroquinazolin-5(6H)-one], the IC50 was 1000 to 10000 nM. For `Cc1nc(N)nc2c1C(=O)CC(c1ccccc1N1CCOCC1)C2` (centres unmarked) [Compound 13, 2-amino-4-methyl-7-(2-morpholin-4-yl-phenyl)-7,8-dihydro-6H-quinazolin-5-one], the IC50 was under 1000 nM. For `Cc1nc(N)nc2c1C(=O)CC(c1ccc(F)cc1Br)C2` (centres unmarked) [Compound 16, 2-amino-7-(2-bromo-4-fluoro-phenyl)-4-methyl-7,8-dihydro-6H-quinazolin-5-one], the IC50 was under 1000 nM. `Cc1cnc(Oc2ccccc2C2CC(=O)c3c(C)nc(N)nc3C2)s1` (centres unmarked) [Compound 21, 2-amino-4-methyl-7-[2-(5-methyl-thiazol-2-yloxy)-phenyl]-7,8-dihydro-6H-quinazolin-5-one] gave an IC50 of under 1000 nM. In the case of `COc1ccncc1-c1ccccc1C1CC(=O)c2c(C)nc(N)nc2C1` (centres unmarked) [Compound 72, 2-amino-7-[2-(4-methoxypyridin-3-yl)phenyl]-4-methyl-7,8-dihydroquinazolin-5(6H)-one], the IC50 is reported as 1000 to 10000 nM. Compound `Cc1nc(N)nc2c1C(=O)CC(c1ccccc1-c1ccsc1)C2` (centres unmarked) [Compound 46, 2-amino-4-methyl-7-(2-thien-3-ylphenyl)-7,8-dihydroquinazolin-5(6H)-one] has an IC50 of under 1000 nM. Compound `COc1ccccc1-c1cc(F)ccc1C1CC(=O)c2c(C)nc(N)nc2C1` (centres unmarked) [Compound 95, 2-amino-7-(5-fluoro-2′-methoxy-biphenyl-2-yl)-4-methyl-7,8-dihydro-6H-quinazolin-5-one] has an IC50 of under 1000 nM.

Same assay, conditions: Table II; read-out: Hsp90 IC50 Range
`COc1cccc(-c2cc(Cl)ccc2C2CC(=O)c3c(C)nc(N)nc3C2)n1` (centres unmarked) [Compound 251, 2-amino-7-[4-chloro-2-(6-methoxy-pyridin-2-yl)-phenyl]-4-methyl-7,8-dihydro-6H-quinazolin-5-one] showed an IC50 of under 1000 nM. `Cc1nc(N)nc2c1C(=O)CC(c1ncc[nH]1)C2` (centres unmarked) [Compound 234, 2-amino-7-(1H-imidazol-2-yl)-4-methyl-7,8-dihydro-6H-quinazolin-5-one] showed an IC50 of over 10000 nM. `Nc1ncc2c(n1)CC(c1ccccc1-c1cccnc1F)CC2=O` (centres unmarked) [Compound 243, 2-amino-7-[2-(2-fluoro-pyridin-3-yl)-phenyl]-7,8-dihydro-6H-quinazolin-5-one] showed an IC50 of under 1000 nM. `Cc1nc(N)nc2c1C(=O)CC(c1ncccc1OC1CCCC1)C2` (centres unmarked) [Compound 177, 2-amino-7-(3-cyclopentyloxy-pyridin-2-yl)-4-methyl-7,8-dihydro-6H-quinazolin-5-one] gave an IC50 of under 1000 nM. Work on `Cc1nc(N)nc2c1C(=O)CC(c1ccccc1S(=O)(=O)C(C)(C)C)C2` (centres unmarked) [Compound 182, 2-amino-4-methyl-7-[2-(2-methyl-propane-2-sulfonyl)-phenyl]-7,8-dihydro-6H-quinazolin-5-one] yielded an IC50 of under 1000 nM. With `COc1nc(-c2cc(F)ccc2C2CC(=O)c3c(C)nc(N)nc3C2)cnc1F` (centres unmarked) [Compound 233, 2-amino-7-[4-fluoro-2-(5-fluoro-6-methoxy-pyrazin-2-yl)-phenyl]-4-methyl-7,8-dihydro-6H-quinazolin-5-one] the IC50 was under 1000 nM. Work on `COc1nccc(-c2cc(F)ccc2C2CC(=O)c3c(C)nc(N)nc3C2)n1` (centres unmarked) [Compound 258, 2-amino-7-[4-fluoro-2-(2-methoxy-pyrimidin-4-yl)-phenyl]-4-methyl-7,8-dihydro-6H-quinazolin-5-one] yielded an IC50 of over 10000 nM. With `Cc1nc(N)nc2c1C(=O)C[C@@H](c1ccc(F)cc1-c1cccc(F)n1)C2` [Compound 214, (S)-2-amino-7-[4-fluoro-2-(6-fluoro-pyridin-2-yl)-phenyl]-4-methyl-7,8-dihydro-6H-quinazolin-5-one] the IC50 was under 1000 nM. For `CCc1nc(N)nc2c1C(=O)CC(c1ccc(F)cc1Br)C2` (centres unmarked) [Compound 315, 2-amino-7-(2-bromo-4-fluoro-phenyl)-4-ethyl-7,8-dihydro-6H-quinazolin-5-one], the IC50 was over 10000 nM. Compound `CCc1nc(N)nc2c1C(=O)CC(c1ccc(F)cc1-c1cccc(OC)n1)C2` (centres unmarked) [Compound 316, 2-amino-4-ethyl-7-[4-fluoro-2-(6-methoxy-pyridin-2-yl)-phenyl]-7,8-dihydro-6H-quinazolin-5-one] has an IC50 of under 1000 nM. `COc1nc(-c2cc(F)ccc2C2CC(=O)c3c(C)nc(N)nc3C2)cnc1N` (centres unmarked) [Compound 232, 2-amino-7-[2-(5-amino-6-methoxy-pyrazin-2-yl)-4-fluoro-phenyl]-4-methyl-7,8-dihydro-6H-quinazolin-5-one] gave an IC50 of under 1000 nM. With `COc1cccc(-c2cc(F)ccc2[C@H]2CC(=O)c3c(C)nc(N)nc3C2)n1` [Compound 260, (R)-2-amino-7-[4-fluoro-2-(6-methoxy-pyridin-2-yl)-phenyl]-4-methyl-7,8-dihydro-6H-quinazolin-5-one] the IC50 was 1000 to 10000 nM. With `Cc1nc(N)nc2c1C(=O)CC(c1ccc(F)cc1-c1cccc(Cl)n1)C2` (centres unmarked) [Compound 223, 2-amino-7-[2-(6-chloro-pyridin-2-yl)-4-fluoro-phenyl]-4-methyl-7,8-dihydro-6H-quinazolin-5-one] the IC50 was under 1000 nM.
